Legend:
Assay type in all cases: cell-based
[1] = tested on: cultured cells of Taxus baccata LINN; assay: Taxus baccata cell culture with fatty acids or natural oil; conditions: added fatty acid 100 μM; 14 days
Procedure: One gram (fresh weight) of the callus was inoculated to an Erlenmeyer flask containing 20 ml of liquid Woody Plant Medium and shake culture was carried out with a rotary shaker (amplification of 25 mm, 100 rpm) and the callus was subcultured in every 21 days to accelerate the growth rate thereof.

[2] = tested on: cultured cells of Taxus baccata LINN; assay: Taxus baccata cell culture with coronatines
Procedure: A part of stem of Taxus baccata LINN which had been previously sterilized with 2% antiformin solution or 70% ethanol solution or the like, was placed on solid Woody Plant Medium (containing gelan gum of 0.25% by weight) to which naphthalenacetic acid had been added to give the concentration of 10^−5 M, and static culture was carried out at 25 ° C. in a dark place to provide callus of Taxus baccata LINN. One gram (fresh weight) of the callus was inoculated to an Erlenmeyer flask containing 20 ml of liquid Woody Plant Medium to which the above-mentioned component was added to give the same concentration and shake culture was carried out with a rotary shaker (amplification of 25 mm, 120 rpm) and the callus was subcultured in every 21 days to accelerate the growth rate thereof.
One gram (fresh weight) of the cultured cells thus obtained was inoculated to an Erlenmeyer flask containing 20 ml of liquid Woody Plant Medium to which the above-mentioned component was added to give the same concentration, and shake culture was carried out at 25° C. for 14 days. On the 14th day after starting the culture, 50 μl of coronatine [formula (IV)] was added as coronatines to the culture medium to give the final concentration of 0.001-1000 μM and the culture was further carried out for another 7 days.
After completing the culture, cultured cells of Taxus baccata LINN were harvested by filtration and lyophilized, then the dry weight was measured to obtain the yeild of the cultured cells per liter of the liquid medium.

[3] = tested on: cultured cells of Taxus media; assay: Taxus media cell culture with derivatives of jasmonic acids
Procedure: A part of germ of Taxus media which had been previously sterilized with 2% antiformin solution or 70% ethanol solution or the like, was placed on solid Woody Plant Medium (containing gelan gum of 0.25% by weight) to which naphthalenacetic acid had been added to give the concentration of 10^−5 M, and static culture was carried out at 25° C. in a dark place to provide callus of Taxus media. One gram (fresh weight) of the callus was inoculated to an Erlenmeyer flask containing 20 ml of liquid Woody Plant Medium to which above-mentioned component was added to give the same concentration, the and shake culture was carried out with a rotary shaker (amplification of 25 mm, 100 rpm) and the callus was subcultured in every 14 days to accelerate the growth rate thereof.
Two grams (fresh weight) of the cultured cells thus obtained was inoculated to an Erlenmeyer flask containing 20 ml of liquid Woody Plant […], and the culture was further carried out for another 14 days.
After completing the culture, cultured cells of Taxus media were harvested by filtration and lyophilized, then the dry weight was measured to obtain the yield of the cultured cells per liter of the liquid medium.

[4] = tested on: cultured cells of Taxus baccata LINN; assay: Taxus baccata cell culture with cyclic polysaccharides and methyl ester of jasmonic acid; conditions: cyclic polysaccharide 10 mM + methyl ester of jasmonic acid 100 μM
Procedure: […] After completing the culture, cultured cells of Taxus baccata LINN were harvested by filtration and lyophilized, then the dry weight was measured to obtain the yeild thereof per liter of the liquid medium.

[5] = concentration of coronatines 1 μM
[6] = concentration of derivative of jasmonic acids 100 μM
[7] = concentration of coronatines 10 μM
[8] = concentration of derivative of jasmonic acids 0.001 μM
[9] = concentration of derivative of jasmonic acids 0.01 μM
[10] = concentration of derivative of jasmonic acids 0.1 μM
[11] = concentration of derivative of jasmonic acids 1 μM
[12] = concentration of derivative of jasmonic acids 10 μM
[13] = concentration of derivative of jasmonic acids 1000 μM

Compound: CCCCC/C=C\C/C=C\CCCCCCCC(=O)O [Example 28, linolic acid]
- yield of cells [1]: 20 g/L
- yield of taxane-type diterpenes, baccatin III [1]: 2 mg/L
- yield of taxane-type diterpenes, cephalomannine [1]: 5 mg/L
- yield of taxane-type diterpenes, taxol [1]: 7 mg/L

Compound: CCCCC/C=C\C/C=C\C/C=C\C/C=C\CCCC(=O)O [Example 29, arachidonic acid]
- yield of cells [1]: 20 g/L
- yield of taxane-type diterpenes, baccatin III [1]: 2 mg/L
- yield of taxane-type diterpenes, cephalomannine [1]: 3 mg/L
- yield of taxane-type diterpenes, taxol [1]: 6 mg/L

Compound: CCCCCCCC/C=C\CCCCCCCC(=O)O [Example 27, oleic acid]
- yield of cells [1]: 20 g/L
- yield of taxane-type diterpenes, baccatin III [1]: 2 mg/L
- yield of taxane-type diterpenes, cephalomannine [1]: 4 mg/L
- yield of taxane-type diterpenes, taxol [1]: 9 mg/L

Compound: CCC1C=C(C(=O)NC(C(=O)O)C(C)C)C2CCC(=O)C2C1 (centres unmarked) [Example 8, N-coronafacoylvaline]
- yield of baccatin III [2, 5]: 25.0 mg/L
- yield of cephalomannine [2, 5]: 9.2 mg/L
- yield of cultured cells [2, 5]: 18.1 g/L
- yield of taxol [2, 5]: 51.1 mg/L

Compound: CC/C=C\CC1C(CC(=O)OC)CCC1NO (centres unmarked) [Example 40]
- yield of cultured cells [3, 6]: 16.2 g/L
- yield of taxane-type diterpenes, baccatin III [3, 6]: 14.2 mg/L
- yield of taxane-type diterpenes, cephalomannine [3, 6]: 5.5 mg/L
- yield of taxane-type diterpenes, taxol [3, 6]: 73.3 mg/L

Compound: CCC1C=C(C(=O)O)C2CCC(=O)C2C1 (centres unmarked) [Example 10, coronafacic acid]
- yield of baccatin III [2, 7]: 12.4 mg/L
- yield of cephalomannine [2, 7]: 3.0 mg/L
- yield of cultured cells [2, 7]: 18.6 g/L
- yield of taxol [2, 7]: 6.2 mg/L

Compound: OC[C@H]1O[C@@H]2O[C@H]3[C@H](O)[C@@H](O)[C@@H](O[C@H]4[C@H](O)[C@@H](O)[C@@H](O[C@H]5[C@H](O)[C@@H](O)[C@@H](O[C@H]6[C@H](O)[C@@H](O)[C@@H](O[C@H]7[C@H](O)[C@@H](O)[C@@H](O[C@H]1[C@H](O)[C@H]2O)O[C@@H]7CO)O[C@@H]6CO)O[C@@H]5CO)O[C@@H]4CO)O[C@@H]3CO [Example 23, α-cyclodextrin]
- yield of baccatin III [4]: 55.7 mg/L
- yield of cephalomannine [4]: 7.5 mg/L
- yield of cultured cells [4]: 16.6 g/L
- yield of taxol [4]: 46.0 mg/L

Compound: CC/C=C\CC1C(=NNS(C)(=O)=O)CCC1CC(=O)OC (centres unmarked) [Example 37]
- yield of cultured cells [3, 6]: 17.1 g/L
- yield of taxane-type diterpenes, baccatin III [3, 6]: 15.3 mg/L
- yield of taxane-type diterpenes, cephalomannine [3, 6]: 5.9 mg/L
- yield of taxane-type diterpenes, taxol [3, 6]: 73.3 mg/L

Compound: CC/C=C\CC1C(=NS(N)(=O)=O)CCC1CC(=O)OC (centres unmarked) [Example 39]
- yield of cultured cells [3, 6]: 17.1 g/L
- yield of taxane-type diterpenes, baccatin III [3, 6]: 19.0 mg/L
- yield of taxane-type diterpenes, cephalomannine [3, 6]: 7.5 mg/L
- yield of taxane-type diterpenes, taxol [3, 6]: 85.0 mg/L

Compound: CC/C=C\CC1/C(=N\NC(N)=O)CCC1CC(=O)OC (centres unmarked) [Example 35]
- yield of cultured cells [3, 6]: 15.3 g/L
- yield of taxane-type diterpenes, baccatin III [3, 6]: 17.2 mg/L
- yield of taxane-type diterpenes, cephalomannine [3, 6]: 5.0 mg/L
- yield of taxane-type diterpenes, taxol [3, 6]: 56.3 mg/L

Compound: CC/C=C\CC1C(=NN)CCC1CC(=O)OC (centres unmarked) [Example 34]
- yield of cultured cells [3, 6]: 16.7 g/L
- yield of taxane-type diterpenes, baccatin III [3, 6]: 16.5 mg/L
- yield of taxane-type diterpenes, cephalomannine [3, 6]: 6.6 mg/L
- yield of taxane-type diterpenes, taxol [3, 6]: 55.0 mg/L

Compound: CC[C@H]1C=C(C(=O)OC)[C@H]2CCC(=O)[C@H]2C1 [Example 11, methyl ester of coronafacic acid]
- yield of baccatin III [2, 7]: 8.4 mg/L
- yield of cephalomannine [2, 7]: 5.1 mg/L
- yield of cultured cells [2, 7]: 19.2 g/L

Compound: CC/C=C\CC1/C(=N\OC)CCC1CC(=O)OC (centres unmarked) [Example 33]
- yield of cultured cells [3, 6]: 16.1 g/L
- yield of taxane-type diterpenes, baccatin III [3, 6]: 18.0 mg/L
- yield of taxane-type diterpenes, cephalomannine [3, 6]: 5.2 mg/L
- yield of taxane-type diterpenes, taxol [3, 6]: 65.3 mg/L

Compound: CC/C=C\CC1C(=NO)CCC1CC(=O)OC (centres unmarked) [Example 32]
- yield of cultured cells [3, 8]: 22.0 g/L
- yield of taxane-type diterpenes, baccatin III [3, 8]: 6.7 mg/L
- yield of taxane-type diterpenes, cephalomannine [3, 8]: 3.2 mg/L
- yield of taxane-type diterpenes, taxol [3, 8]: 16.7 mg/L
- yield of cultured cells [3, 9]: 21.1 g/L
- yield of taxane-type diterpenes, baccatin III [3, 9]: 6.8 mg/L
- yield of taxane-type diterpenes, cephalomannine [3, 9]: 3.6 mg/L
- yield of taxane-type diterpenes, taxol [3, 9]: 20.2 mg/L
- yield of cultured cells [3, 10]: 20.2 g/L
- yield of taxane-type diterpenes, baccatin III [3, 10]: 7.5 mg/L
- yield of taxane-type diterpenes, cephalomannine [3, 10]: 4.0 mg/L
- yield of taxane-type diterpenes, taxol [3, 10]: 24.1 mg/L
- yield of cultured cells [3, 11]: 19.5 g/L
- yield of taxane-type diterpenes, baccatin III [3, 11]: 8.5 mg/L
- yield of taxane-type diterpenes, cephalomannine [3, 11]: 4.2 mg/L
- yield of taxane-type diterpenes, taxol [3, 11]: 34.5 mg/L
- yield of cultured cells [3, 12]: 18.3 g/L
- yield of taxane-type diterpenes, baccatin III [3, 12]: 13.5 mg/L
- yield of taxane-type diterpenes, cephalomannine [3, 12]: 6.3 mg/L
- yield of taxane-type diterpenes, taxol [3, 12]: 56.2 mg/L
- yield of cultured cells [3, 6]: 16.4 g/L
- yield of taxane-type diterpenes, baccatin III [3, 6]: 20.1 mg/L
- yield of taxane-type diterpenes, cephalomannine [3, 6]: 9.2 mg/L
- yield of taxane-type diterpenes, taxol [3, 6]: 78.0 mg/L
- yield of cultured cells [3, 13]: 14.0 g/L
- yield of taxane-type diterpenes, baccatin III [3, 13]: 9.3 mg/L
- yield of taxane-type diterpenes, cephalomannine [3, 13]: 3.5 mg/L
- yield of taxane-type diterpenes, taxol [3, 13]: 17.2 mg/L

Compound: CC[C@H]1C=C(C(=O)N[C@@]2(C(=O)OC)C[C@@H]2CC)[C@H]2CCC(=O)[C@H]2C1 [Example 9, methyl ester of coronatine]
- yield of baccatin III [2, 5]: 4.6 mg/L
- yield of cephalomannine [2, 5]: 6.6 mg/L
- yield of cultured cells [2, 5]: 19.5 g/L
- yield of taxol [2, 5]: 11.3 mg/L

Compound: cyclofructan [Example 25]
- yield of baccatin III [4]: 51.4 mg/L
- yield of cephalomannine [4]: 9.1 mg/L
- yield of cultured cells [4]: 17.9 g/L
- yield of taxol [4]: 48.9 mg/L

Compound: CC/C=C\CC1/C(=N\NC=O)CCC1CC(=O)OC (centres unmarked) [Example 36]
- yield of cultured cells [3, 6]: 17.2 g/L
- yield of taxane-type diterpenes, baccatin III [3, 6]: 18.5 mg/L
- yield of taxane-type diterpenes, cephalomannine [3, 6]: 6.2 mg/L
- yield of taxane-type diterpenes, taxol [3, 6]: 79.5 mg/L

Compound: CC/C=C\CC1C(=NC#N)CCC1CC(=O)OC (centres unmarked) [Example 38]
- yield of cultured cells [3, 6]: 14.3 g/L
- yield of taxane-type diterpenes, baccatin III [3, 6]: 14.5 mg/L
- yield of taxane-type diterpenes, cephalomannine [3, 6]: 5.0 mg/L
- yield of taxane-type diterpenes, taxol [3, 6]: 82.9 mg/L
